Reference: ChEMBL document CHEMBL1132092, “Structure-activity relationship at the proximal phenyl group in a series of non-peptidyl N-type calcium channel antagonists” (Bioorg Med Chem Lett, 1999)

Target: Voltage-dependent N-type calcium channel subunit alpha-1B (Homo sapiens, UniProt Q00975)
Experiment: Inhibition of N-type Voltage Sensitive Calcium Channel (VSCC) using IMR-32 assay
Format: functional

Voltage-dependent N-type calcium channel subunit alpha-1B, sequence (Q00975 whole entry): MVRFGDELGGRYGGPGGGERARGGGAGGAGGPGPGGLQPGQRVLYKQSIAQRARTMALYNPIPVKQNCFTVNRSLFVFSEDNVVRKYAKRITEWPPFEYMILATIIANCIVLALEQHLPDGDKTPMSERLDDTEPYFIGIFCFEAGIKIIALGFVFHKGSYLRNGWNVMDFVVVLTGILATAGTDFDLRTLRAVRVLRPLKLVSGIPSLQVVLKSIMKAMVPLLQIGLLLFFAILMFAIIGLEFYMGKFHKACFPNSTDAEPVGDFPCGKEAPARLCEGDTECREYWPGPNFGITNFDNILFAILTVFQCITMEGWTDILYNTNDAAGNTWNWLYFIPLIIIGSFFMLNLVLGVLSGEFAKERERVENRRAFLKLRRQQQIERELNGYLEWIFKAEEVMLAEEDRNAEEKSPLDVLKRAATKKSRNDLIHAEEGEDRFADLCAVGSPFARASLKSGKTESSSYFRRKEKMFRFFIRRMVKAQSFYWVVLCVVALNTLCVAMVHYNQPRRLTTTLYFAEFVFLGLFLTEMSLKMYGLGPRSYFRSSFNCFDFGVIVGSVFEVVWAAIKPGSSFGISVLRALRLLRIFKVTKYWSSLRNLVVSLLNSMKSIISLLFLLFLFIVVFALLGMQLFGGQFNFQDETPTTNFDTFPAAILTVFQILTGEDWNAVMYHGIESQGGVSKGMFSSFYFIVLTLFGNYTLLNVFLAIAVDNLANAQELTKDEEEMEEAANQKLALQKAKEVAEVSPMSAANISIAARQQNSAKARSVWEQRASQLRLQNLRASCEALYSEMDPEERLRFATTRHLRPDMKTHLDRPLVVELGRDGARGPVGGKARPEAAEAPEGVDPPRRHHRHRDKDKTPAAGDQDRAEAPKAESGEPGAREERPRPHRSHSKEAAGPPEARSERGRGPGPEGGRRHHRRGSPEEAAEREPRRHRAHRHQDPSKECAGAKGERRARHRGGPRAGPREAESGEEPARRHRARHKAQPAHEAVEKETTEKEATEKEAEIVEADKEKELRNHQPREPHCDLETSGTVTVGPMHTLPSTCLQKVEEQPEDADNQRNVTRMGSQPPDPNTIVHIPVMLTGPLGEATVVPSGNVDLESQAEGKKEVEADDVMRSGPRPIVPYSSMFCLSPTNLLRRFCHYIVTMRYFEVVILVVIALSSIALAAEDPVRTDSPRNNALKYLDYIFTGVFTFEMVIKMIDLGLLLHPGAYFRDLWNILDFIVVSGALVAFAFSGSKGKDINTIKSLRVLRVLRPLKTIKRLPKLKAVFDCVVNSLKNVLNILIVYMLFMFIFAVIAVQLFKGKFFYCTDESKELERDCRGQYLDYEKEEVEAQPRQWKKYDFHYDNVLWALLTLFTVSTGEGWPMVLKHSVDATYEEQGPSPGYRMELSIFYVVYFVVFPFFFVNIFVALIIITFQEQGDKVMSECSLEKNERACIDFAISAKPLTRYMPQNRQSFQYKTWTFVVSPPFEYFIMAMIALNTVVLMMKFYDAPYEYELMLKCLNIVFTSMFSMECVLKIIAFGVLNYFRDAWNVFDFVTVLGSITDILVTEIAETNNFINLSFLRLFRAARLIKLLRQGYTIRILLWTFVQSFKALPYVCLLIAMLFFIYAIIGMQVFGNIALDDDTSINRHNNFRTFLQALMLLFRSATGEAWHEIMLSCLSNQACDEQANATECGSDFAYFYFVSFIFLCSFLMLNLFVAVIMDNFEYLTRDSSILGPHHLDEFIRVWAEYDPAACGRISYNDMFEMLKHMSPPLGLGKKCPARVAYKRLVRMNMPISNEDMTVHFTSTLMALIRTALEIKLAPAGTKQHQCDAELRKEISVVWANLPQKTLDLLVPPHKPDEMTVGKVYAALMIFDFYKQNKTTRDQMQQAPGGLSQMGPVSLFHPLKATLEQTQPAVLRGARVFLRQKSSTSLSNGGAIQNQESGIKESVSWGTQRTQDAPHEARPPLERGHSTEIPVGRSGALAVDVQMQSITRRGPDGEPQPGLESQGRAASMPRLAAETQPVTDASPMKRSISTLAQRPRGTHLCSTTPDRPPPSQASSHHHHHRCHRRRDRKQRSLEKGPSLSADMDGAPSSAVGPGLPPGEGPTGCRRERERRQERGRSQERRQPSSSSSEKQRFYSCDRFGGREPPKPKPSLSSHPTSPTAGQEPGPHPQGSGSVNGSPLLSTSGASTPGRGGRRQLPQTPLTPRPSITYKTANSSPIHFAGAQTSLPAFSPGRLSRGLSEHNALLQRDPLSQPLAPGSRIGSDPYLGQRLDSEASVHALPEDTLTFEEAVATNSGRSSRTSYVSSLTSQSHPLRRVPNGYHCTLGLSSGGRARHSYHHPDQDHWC

| SMILES | IC50 |
| --- | --- |
| CC(C)CCN(c1ccc(OCc2ccccc2)cc1)C1CCN(C(=O)[C@H](CC(C)C)NC(=O)N2CCCCCC2)CC1 | 0.19 µM |
| CC(C)CCN(c1ccc(NCc2cnc[nH]2)cc1)C1CCN(C(=O)[C@H](CC(C)C)NC(=O)N2CCCCCC2)CC1 | 120 µM |
| CC(C)=CCN(c1ccc(OCc2ccccc2)cc1)C1CCN(C(=O)[C@H](CC(C)C)NC(=O)N2CCCCCC2)CC1 | 0.34 µM |

Further compounds by falling IC50, results first:

| IC50 | SMILES |
| --- | --- |
| 1.1 µM | CC(C)CCN(c1ccc(O)cc1)C1CCN(C(=O)[C@H](CC(C)C)NC(=O)N2CCCCCC2)CC1 |
| 1 µM | CC(C)=CCN(c1ccccc1)C1CCN(C(=O)[C@H](CC(C)C)NC(=O)N2CCCCCC2)CC1 |
| 0.67 µM | CC(C)=CCN(c1ccc(CCc2ccccc2)cc1)C1CCN(C(=O)[C@H](CC(C)C)NC(=O)N2CCCCCC2)CC1 |
